Columns and labels:
[1] = tested on: Capan-1; test: In vitro cytotoxicity and combination study, crystal violet; assay type: cell-based, human; conditions: 72 hr of exposure
Excerpt: (§1) If CI near to 1 indicates additive effect (ADD), CI>1 indicates antagonism (ANT), CI<1 indicates synergism (SYN).

[2] = tested on: Capan-2; test: as above; assay type: cell-based, human; conditions: 72 hr of exposure
Excerpt: as §1

[3] = tested on: L3.6pl; test: as above; assay type: cell-based, human; conditions: 72 hr of exposure
Excerpt: as §1

[4] = tested on: AsPc-1; test: as above; assay type: cell-based, human; conditions: 72 hr of exposure
Excerpt: as §1

[5] = tested on: A375-M Cells; test: Combination studies of GrB/scFvMEL with chemotherapeutic agents; conditions: for antitumor activity on co-administration with GrB/scFvMEL: 72 hours
Description: Cells in exponential growth phase were plated into 96-well plates. After 24 hr, the cells were treated with drug-containing medium. At the end of the indicated incubation period, growth inhibition was assessed by crystal violet staining. In order to determine the effects of sequencing, cells were treated with different two sequences.
I.C.25 dose of either GrB/scFvMEL or chemotherapeutic agents have been used in combination studies.

[6] = tested on: AsPc-1, Capan-1, Capan-2, and L3.6pl; test: cells; conditions: Homo sapiens, Pancreatic cancer cell
Description: (§4) To examine the potential mediation of the synergistic effect of combination treatments by activation of caspase-3 cells were pretreated with or without 100 μM caspase-3 inhibitor (Ac-DEVD-CHO) for 3 hr and then treated with their individual IC25 concentrations. After incubation for an additional 72 hr, remaining adherent cells were stained by adding 50 μl of crystal violet solution (0.5% w/v in 20% MeOH/H2O). Dye-stained cells were solubilized by addition of 100 μl of Sorenson's buffer [100 mM sodium citrate (pH 4.2) in 50% ethanol], and absorbance was measured at 630 nm using an ELISA plate reader (Bio-Tek Instruments, Inc., Winooski, Vt.).

[7] = tested on: AsPc-1, Capan-1, Capan-2, and L3.6pl; conditions: pancreatic cancer cell lines
Description: as §4

[8] = target: gp240 antigen (high-molecular-weight glycoprotein gp240 on human melanoma cells) (human) (UniProt Q6UVK1); test: cell-based or functional assay
[9] = tested on: parental A375 cells; test: Cytotoxicity on parental and doxorubicin-resistant cells; assay type: cell-based; conditions: Homo sapiens, A-375; 72 hours
Description: (§2) To examine the cytotoxicity of GrB/scFvMEL or MEL/sFv/rGel, melanoma cells were plated on 96-well plates at a density of 4×10^3 cells per well and allowed to adhere for 24 hr at 37° C. in 5% CO2. After 24 hr, the medium was replaced with medium that contained various concentrations of fusion proteins. […] The percent of control refers to the percentage of cells in the drug-treated wells compared to that of control (untreated) wells.
(§3) Expression of the gp240 antigen was assessed by ELISA using ZME-018 antibody specifically recognizing gp240 antigen.

[10] = tested on: A375 doxorubicin-resistant (A375DR); test: as above; assay type: cell-based; conditions: Homo sapiens, A-375; 72 hours
Description: as §2, §3

[11] = target: gp240 antigen (high-molecular-weight glycoprotein gp240 on human melanoma cells) (human) (UniProt Q6UVK1); test: flow cytometry on A375-M cells stained with ZME-018 IgG2a and APC goat anti-mouse, against an isotype control
[12] = target: gp240 antigen (high-molecular-weight glycoprotein gp240 on human melanoma cells) (human) (UniProt Q6UVK1); test: flow cytometry on TXM-1 cells (very low gp240) stained with ZME-018 IgG2a and APC goat anti-mouse, against an isotype control
[13] = target: gp240 antigen (high-molecular-weight glycoprotein gp240 on human melanoma cells) (human) (UniProt Q6UVK1); test: flow cytometry on TXM-18L cells stained with ZME-018 IgG2a and APC goat anti-mouse, against an isotype control
[14] = target: gp240 antigen (high-molecular-weight glycoprotein gp240 on human melanoma cells) (human) (UniProt Q6UVK1); test: flow cytometry on MEL-526 cells stained with ZME-018 IgG2a and APC goat anti-mouse, against an isotype control
[15] = tested on: L3.6pl cells; test: Western blot of signal transduction effects; assay type: cell-based, human; design: key to Caspase-8 cleavage / Caspase-3 cleavage / PARP cleavage / Akt / p-Akt / Bcl-2: NE represents no effect; conditions: IC25 doses
Description: Cell lysates ([…]) were fractionated by 8-15% SDS-PAGE and transferred on Immobilon-P nitrocellulose membranes (Schleicher & Schuell Inc., Keene, N.H.). Membranes were blocked for 2 hours in Tris-buffered saline (TBS) containing 3% bovine serum albumin. Monoclonal anti-HER-2/neu Ab (Oncogene Research Products, San Diego, Calif.), rabbit polyclonal anti-HER-1 Ab, rabbit polyclonal anti-TNFR-1 Ab, rabbit polyclonal anti-TNFR-2 Ab, rabbit polyclonal anti-phospho Akt Ab, rabbit polyclonal anti-Akt, and goat anti-β-actin Ab were used for immunoblotting. Goat anti-mouse/goat anti-rabbit or swain anti-goat antibodies conjugated with horseradish peroxidase (Bio-Rad Laboratories, Hercules, Calif.) were used to visualize immunoreactive proteins at a 1:4000 dilution using ECL detection reagent (Amersham Pharmacia Biotech Inc., Piscataway, N.J.).
HER-2/neu over-expression results in activation of different downstream pathways such as the Akt kinase pathway, which leads to cell proliferation and cell survival. […] The activation of Akt kinase was then assessed by Western blot analysis using antibodies to Akt and to phospho-Akt. […]
To determine whether caspase-8 and caspase-3 were activated in L3.6pl cells during 5-FU+scFv23/TNF-induced cell death, the cleavage of caspase-8, caspase-3, and its substrate poly (ADP)-ribose polymerase (PARP) was investigated.

[16] = tested on: HER-2-overexpressing SKBR-3/H cells; test: Western blot, DNA fragmentation, TUNEL: signal transduction effects; assay type: cell-based, human; design: key to Akt / Caspase-8 cleavage / Caspase-3 cleavage / PARP cleavage / DNA fragmentation / IκB-α / TRADD / TRAF-2: NE represents no effect; conditions: 200 nM
Description: Apoptosis was detected by DNA fragmentation and TUNEL assay. […] After 24 hr and 48 hr, cells were washed with PBS, resuspended in a DNA extraction buffer containing 5 mM Tris-HCl, pH 8, 50 mM EDTA, 10 μg/ml RNAse, and 0.25% SDS and then incubated for 1 hr at 37° C. To remove protein, resuspended cell lysates were treated with 100 μg/ml proteinase K for 3 hr at 50° C. DNA was extracted using phenol and chloroform followed by ethanol precipitation. The genomic DNA was resuspended in Tris-EDTA (pH 8) and was fractionated by electrophoresis on a 1% agarose gel containing ethidium bromide.
The cells were washed with PBS, permeabilized (0.1% Triton X-100, 0.1% sodium citrate), and then fixed in 4% paraformaldehyde. Fixed cells were stained with in situ cell death detection kit (Roche). Cells undergoing apoptosis were identified by fluorescence microscopy.
After treatment, cells were washed twice with phosphate buffered saline (PBS) and lysed on ice for 20 min in 0.3 ml of lysis buffer (10 mM Tris-HCl, pH 8, 60 mM KCl, 1 mM EDTA, 1 mM DTT, 0.2% NP-40). Cell lysates (50 μg) were fractionated by 8-15% SDS-PAGE and electrophoretically transferred to Immobilon-P nitrocellulose membranes (Schleicher & Schuell Inc., Keene, N.H.). Membranes were blocked 2 hrs in Tris-buffered saline (TBS) containing 3% bovine serum albumin and then probed with various antibodies (monoclonal anti-HER-2/neu Ab, rabbit polyclonal anti-TNFR1 Ab, rabbit polyclonal anti-TNFR2 Ab, rabbit polyclonal anti-caspase-8 Ab, monoclonal anti-caspase-3 Ab, monoclonal anti-PARP Ab, rabbit polyclonal anti-TRADD Ab, rabbit polyclonal anti-TRAF2 Ab, rabbit polyclonal anti-IκB-α Ab, rabbit polyclonal anti-phospho Akt Ab, and rabbit polyclonal anti-Akt Ab). Goat anti-mouse/goat anti-rabbit or swain anti-goat antibodies conjugated with horseradish peroxidase (Bio-Rad Laboratories, Hercules, Calif.) were used to visualize immunoreactive proteins at a 1:4000 dilution using ECL detection reagent (Amersham Pharmacia Biotech Inc., Piscataway, N.J.).

[17] = Seq. III: pretreated with GrB/scFvMEL for 6 h, then agent for 72 h
[18] = Seq. IV: agent for 72 h without GrB/scFvMEL pretreatment

gp240 antigen (high-molecular-weight glycoprotein gp240 on human melanoma cells) (human), sequence (Q6UVK1 30-2322): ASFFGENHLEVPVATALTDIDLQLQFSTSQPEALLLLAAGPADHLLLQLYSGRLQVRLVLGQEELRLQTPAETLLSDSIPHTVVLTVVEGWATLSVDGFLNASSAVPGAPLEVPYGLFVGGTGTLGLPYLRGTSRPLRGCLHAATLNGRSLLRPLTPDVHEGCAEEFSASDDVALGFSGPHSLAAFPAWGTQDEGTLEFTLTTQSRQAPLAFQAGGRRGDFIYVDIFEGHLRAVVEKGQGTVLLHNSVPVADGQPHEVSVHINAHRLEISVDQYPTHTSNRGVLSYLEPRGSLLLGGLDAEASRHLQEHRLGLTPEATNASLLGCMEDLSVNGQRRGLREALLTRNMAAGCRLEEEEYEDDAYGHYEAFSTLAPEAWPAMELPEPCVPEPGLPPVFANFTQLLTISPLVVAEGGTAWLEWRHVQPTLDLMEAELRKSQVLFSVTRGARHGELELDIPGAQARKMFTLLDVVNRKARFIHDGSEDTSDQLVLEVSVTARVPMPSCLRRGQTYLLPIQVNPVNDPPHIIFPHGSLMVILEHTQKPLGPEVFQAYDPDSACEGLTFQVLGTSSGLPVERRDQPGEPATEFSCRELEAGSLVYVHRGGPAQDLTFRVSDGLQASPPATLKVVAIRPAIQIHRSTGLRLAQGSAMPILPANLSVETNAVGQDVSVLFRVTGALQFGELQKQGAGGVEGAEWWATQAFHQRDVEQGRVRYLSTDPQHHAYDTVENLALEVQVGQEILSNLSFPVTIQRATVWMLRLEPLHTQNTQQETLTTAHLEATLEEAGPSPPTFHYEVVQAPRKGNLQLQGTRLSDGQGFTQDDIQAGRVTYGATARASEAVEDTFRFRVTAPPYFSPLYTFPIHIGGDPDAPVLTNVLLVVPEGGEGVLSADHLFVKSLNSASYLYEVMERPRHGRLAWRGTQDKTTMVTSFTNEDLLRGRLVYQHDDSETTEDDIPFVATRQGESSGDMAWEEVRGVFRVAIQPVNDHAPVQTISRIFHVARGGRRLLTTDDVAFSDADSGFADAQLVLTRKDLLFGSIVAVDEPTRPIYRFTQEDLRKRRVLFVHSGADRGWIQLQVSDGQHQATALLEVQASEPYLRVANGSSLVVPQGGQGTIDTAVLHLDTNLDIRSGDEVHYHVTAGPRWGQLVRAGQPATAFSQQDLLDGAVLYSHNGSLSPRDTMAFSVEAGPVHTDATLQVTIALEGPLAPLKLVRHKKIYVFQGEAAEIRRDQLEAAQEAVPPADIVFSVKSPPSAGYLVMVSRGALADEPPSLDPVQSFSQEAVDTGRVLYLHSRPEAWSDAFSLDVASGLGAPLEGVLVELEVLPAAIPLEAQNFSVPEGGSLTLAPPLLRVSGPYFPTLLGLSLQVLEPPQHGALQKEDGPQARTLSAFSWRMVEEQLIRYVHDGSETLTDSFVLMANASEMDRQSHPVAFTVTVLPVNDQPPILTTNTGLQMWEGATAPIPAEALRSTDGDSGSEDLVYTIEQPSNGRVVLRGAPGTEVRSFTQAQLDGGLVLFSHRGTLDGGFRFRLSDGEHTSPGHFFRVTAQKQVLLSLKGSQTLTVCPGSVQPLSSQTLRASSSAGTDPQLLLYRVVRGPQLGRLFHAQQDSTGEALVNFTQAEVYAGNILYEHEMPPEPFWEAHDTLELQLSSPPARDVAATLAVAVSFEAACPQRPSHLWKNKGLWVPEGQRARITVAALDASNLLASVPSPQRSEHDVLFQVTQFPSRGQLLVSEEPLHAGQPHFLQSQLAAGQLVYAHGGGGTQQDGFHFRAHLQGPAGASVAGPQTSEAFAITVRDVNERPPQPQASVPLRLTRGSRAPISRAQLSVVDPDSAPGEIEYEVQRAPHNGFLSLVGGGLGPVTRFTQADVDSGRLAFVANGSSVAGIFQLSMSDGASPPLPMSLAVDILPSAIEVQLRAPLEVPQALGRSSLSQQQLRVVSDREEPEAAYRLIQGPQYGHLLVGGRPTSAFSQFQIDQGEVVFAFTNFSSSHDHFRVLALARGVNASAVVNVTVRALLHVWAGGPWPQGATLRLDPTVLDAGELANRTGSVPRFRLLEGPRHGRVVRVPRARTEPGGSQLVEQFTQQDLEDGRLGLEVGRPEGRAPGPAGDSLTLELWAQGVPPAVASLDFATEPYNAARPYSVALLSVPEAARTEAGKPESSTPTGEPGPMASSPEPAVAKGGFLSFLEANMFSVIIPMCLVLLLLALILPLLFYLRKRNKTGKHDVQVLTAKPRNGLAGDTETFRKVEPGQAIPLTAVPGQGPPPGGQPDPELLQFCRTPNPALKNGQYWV

Row | Molecule | IC50 ([1]; Homo sapiens, CAPAN-1) | IC50 ([2]; Homo sapiens, Capan-2) | IC50 ([3]; Homo sapiens, L3.6pl) | IC50 ([4]; Homo sapiens, ASPC1) | antitumor activity on co-administration with GrB/scFvMEL [5] | % cytotoxicity [5, 17] | % cytotoxicity [5, 18] | IC50 [6] | also measured
1 | COc1cc([C@@H]2c3cc4c(cc3[C@@H](O[C@@H]3O[C@@H]5CO[C@@H](C)O[C@H]5[C@H](O)[C@H]3O)[C@H]3COC(=O)[C@H]23)OCO4)cc(OC)c1O [Etoposide] | 2000 nM | 40000 nM | 2000 nM | 28000 nM | additive | 59.80 ± 1.986% | 51.27 ± 1.102% | 1000 to 300000 nM | 
2 | Nc1ccn([C@@H]2O[C@H](CO)[C@@H](O)[C@@H]2O)c(=O)n1 [Ara C, cytarabine] |  |  |  |  | additive | 68.70 ± 0.950% | 62.10 ± 1.054% |  | 
3 | Nc1ccn([C@@H]2O[C@H](CO)[C@@H](O)C2(F)F)c(=O)n1 [Gemcitabine] | 20 nM | 150 nM | 6 nM | 200 nM |  |  |  | 6 to 700 nM | cytotoxic effect of agent combined with scFv23/TNF [7]: antagonistic cytotoxic effects in 3/4 cell lines
4 | N.N.[Cl][Pt][Cl] [Cisplatin] |  |  |  |  | synergistic |  |  |  | IC50 [1]: 4500 nM; IC50 [2]: 50000 nM; IC50 [3]: 3600 nM; IC50 [4]: 14000 nM; cytotoxic effect of agent combined with scFv23/TNF [7]: antagonistic cytotoxic effects in 3/4 cell lines
5 | GrB/scFvMEL fusion construct (from UniProt P10144 21-247) |  |  |  |  |  |  |  |  | I.C.50, 72-h cytotoxicity (crystal violet), A375-M cells [8]: 32.1 nM; I.C.50, 72-h cytotoxicity (crystal violet), MEL-526 cells [8]: 50 nM; I.C.50, 72-h cytotoxicity (crystal violet), TXM-1 cells (very low-level gp240 expression) [8]: > 1 µM; I.C.50, 72-h cytotoxicity (crystal violet), TXM-13 cells [8]: 200 nM; I.C.50, 72-h cytotoxicity (crystal violet), TXM-18L cells [8]: 158 nM
6 | COc1cccc2c1C(=O)c1c(O)c3c(c(O)c1C2=O)C[C@@](O)(C(=O)CO)C[C@@H]3O[C@H]1C[C@H](N)[C@H](O)[C@H](C)O1 [Doxorubicin] | 60 nM | 500 nM | 30 nM | 320 nM | synergistic | 33.73 ± 1.590% | 30.33 ± 1.093% | 6 to 700 nM | IC50 [9]: 0.5 nM; IC50 [10]: 200 nM
7 | CC[C@]1(O)C[C@H]2CN(CCc3c([nH]c4ccccc34)[C@@](C(=O)OC)(c3cc4c(cc3OC)N(C=O)[C@H]3[C@@](O)(C(=O)OC)[C@H](OC(C)=O)[C@]5(CC)C=CCN6CC[C@]43[C@@H]65)C2)C1 [VCR, vincristine] |  |  |  |  | synergistic |  |  |  | 
8 | monoclonal antibody ZME-018 IgG2a |  |  |  |  |  |  |  |  | Gp240 Antigen % positive [11]: 98.9%; Gp240 Antigen % positive [12]: 4.6%; Gp240 Antigen % positive [13]: 40.9%; Gp240 Antigen % positive [14]: 97.8%
9 | O=c1[nH]cc(F)c(=O)[nH]1 [5-Fluorouracil, 5-fluorouracil] | 6000 nM | 300000 nM | 1000 nM | 7500 nM | additive | 44.43 ± 2.118% | 21.90 ± 0.794% | 1000 to 300000 nM | Akt [15]: NE; Bcl-2 [15]: NE; inhibition of Bcl-2 expression levels [15]: no impact; p-Akt [15]: NE; Caspase-3 cleavage ([15]; 48 hr): NE; Caspase-8 cleavage ([15]; 48 hr): NE; PARP cleavage ([15]; 48 hr): NE
10 | scFv23: single chain antibody recognizing the cell surface domain of HER-2/neu (protein) scFv: DVQLTQSPAILSASPGEKVTMTCRATPSVSYMHWYQQKPGSSPKPWIYTTSNLASGVPARFSGGGSGTSYSLTVSRVEAEDAATYYCQQWSRSPPTFGGGSKLEIKGSTSGSGKSSEGKGVQLQESGPEVVKPGGSMKISCKTSGYSFTGHTMNWVKQSHGKNLEWIGLINPYNGDTNYNQKFKGKATFTVDKSSSTAYMELLSLTSEDSAVYYCARRVTDWYFDVWGAGTTVTVSS |  |  |  |  |  |  |  |  | Akt [16]: NE; Caspase-3 cleavage [16]: NE; Caspase-8 cleavage [16]: NE; DNA fragmentation [16]: NE; IκB-α [16]: NE*; PARP cleavage [16]: NE; TRADD [16]: NE; TRAF-2 [16]: NE; p-Akt [16]: ↑

Source: patent US20060263368A1, “Targeted chimeric molecules for cancer therapy” (Research Development Foundation, priority 2005, published 2006)
